The values that follow come from patent US8932597B2 (priority 2008, dated 2015).

The subject of experiment [1] is anti-M2 human monoclonal antibody Z3G1. It is filed as binding.
The next experiment has as its system HuM2e antibody 23K12. It counts as binding, human.

With “454 (SLLTEVETPIMNEWGCRCNDSSD; epitope peptide) [compound 454]”, in experiment [1], the “Signal (peptides that show specific binding to Z3G1)” value was found to be 2369. Also, in the experiment with HuM2e antibody 23K12, the “Signal (peptides that bind to 23K21 and 8I10)” value is 1308.
The matching figures for “683 (SLLTEVETPIRNEWGCACNDSSD; epitope peptide) [compound 683]”: 2301 and 729.
For the substance “447 (SLLTEVETPIRNEWGCRCNDS; epitope peptide) [compound 447]”, the “Signal (peptides that bind to Z3G1)” value in experiment [1] was found to be 2348. The “Signal (peptides that bind to 23K21 and 8I10)” value in the experiment with HuM2e antibody 23K12 is reported as 817.
With “415 (SLLTEVETPIRNEWGCRCNDRSD; epitope peptide) [compound 415]”, in experiment [1], the “Signal (peptides that bind to Z3G1)” value came to 2502. Further, the “Signal (peptides that bind to 23K21 and 8I10)” value with HuM2e antibody 23K12 came out at 860.
Regarding “406 (SLLTEVETPIRNEWGCRCNDFSD; epitope peptide) [compound 406]”, the “Signal (peptides that bind to Z3G1)” value in experiment [1] is recorded as 2395. For the same substance, the “Signal (peptides that bind to 23K21 and 8I10)” value in the experiment with HuM2e antibody 23K12 came to 788.
Take “647 (SLLTEVETPIRNEWGHRCNDSSD; epitope peptide) [compound 647]”: the “Signal (peptides that show specific binding to Z3G1)” value in experiment [1] was 2113. In addition, in the experiment with HuM2e antibody 23K12, the “Signal (peptides that bind to 23K21 and 8I10)” value is 763.
“678 (SLLTEVETPIRSEWGCRCNDSSD; epitope peptide) [compound 678]”: the “Signal (peptides that show specific binding to Z3G1)” value in experiment [1] amounted to 2322. The “Signal (peptides that bind to 23K21 and 8I10)” value with HuM2e antibody 23K12 is 730.
As for “373 (CSLLTECGMSLLTEV; epitope peptide) [compound 373]”, in experiment [1], the “Signal (peptides that bind to Z3G1)” value was 1235. The “Signal (peptides that bind to 23K21 and 8I10)” value with HuM2e antibody 23K12 amounted to 1458.
For “670 (SLLTEVETWIRNEWGCRCNDSSD; epitope peptide) [compound 670]”, the “Signal (peptides that show specific binding to Z3G1)” value in experiment [1] came out at 2146. Moreover, the “Signal (peptides that bind to 23K21 and 8I10)” value in the experiment with HuM2e antibody 23K12 is given as 736.
The matching figures for “250 (CSLLTEVETCTEVETPIRNEWGSRSC; epitope peptide) [compound 250]”: 2474 and 786.
Taken in the same sequence, the figures for “712 (SLLTEVETPIRNDWGCRCNDSSD; epitope peptide) [compound 712]” were 2324 and 706.
Taken in the same sequence, the figures for “593 (SLLTEVEIPIRNEWGCRCNDSSD; epitope peptide) [compound 593]” were 2365 and 839.
For the substance “661 (SLLTEVETPIRQEWGCRCNDSSD; epitope peptide) [compound 661]”, the “Signal (peptides that show specific binding to Z3G1)” value in experiment [1] came out at 2367. Also, the “Signal (peptides that bind to 23K21 and 8I10)” value in the experiment with HuM2e antibody 23K12 was 748.
Turning to “398 (SLLTEVETPIRNEWGCRCNRSSD; epitope peptide) [compound 398]”, in experiment [1], the “Signal (peptides that bind to Z3G1)” value is recorded as 2514. Further, the “Signal (peptides that bind to 23K21 and 8I10)” value in the experiment on HuM2e antibody 23K12 is recorded as 890.
With “496 (SCLTEVGSLLCEV; epitope peptide) [compound 496]”, the “Signal (peptides that show specific binding to Z3G1)” value in experiment [1] was 1896. In addition, the “Signal (peptides that bind to 23K21 and 8I10)” value in the experiment with HuM2e antibody 23K12 was determined as 1095.
Regarding “575 (SLLTEVRTPIRNEWGCRCNDSSD; epitope peptide) [compound 575]”, in experiment [1], the “Signal (peptides that show specific binding to Z3G1)” value was 1024. Also, the “Signal (peptides that bind to 23K21 and 8I10)” value with HuM2e antibody 23K12 is given as 866.
Take “383 (CSLLTEVGCSLLTEC; epitope peptide) [compound 383]”: in experiment [1], the “Signal (peptides that bind to Z3G1)” value was 2486. For the same substance, in the experiment with HuM2e antibody 23K12, the “Signal (peptides that bind to 23K21 and 8I10)” value was 1380.
Turning to “459 (SLITEVETPIRNEWGCRCNDSSD; epitope peptide) [compound 459]”, the “Signal (peptides that show specific binding to Z3G1)” value in experiment [1] came to 1996. Besides, the “Signal (peptides that bind to 23K21 and 8I10)” value in the experiment with HuM2e antibody 23K12 is reported as 1277.
Taken in the same sequence, the figures for “685 (SLLTEVETPIRNVWGCRCNDSSD; epitope peptide) [compound 685]” were 2281 and 728.
The matching figures for “718 (SLLTEVECPIRNEWGCRCNDSSD; epitope peptide) [compound 718]”: 1974 and 700.
For the substance “556 (SLLTELETPIRNEWGCRCNDSSD; epitope peptide) [compound 556]”, the “Signal (peptides that show specific binding to Z3G1)” value in experiment [1] was 1380. Besides, the “Signal (peptides that bind to 23K21 and 8I10)” value in the experiment with HuM2e antibody 23K12 amounted to 900.
With “423 (SLLTEVETPIRNEWGCRCNDSHD; epitope peptide) [compound 423]”, the “Signal (peptides that bind to Z3G1)” value in experiment [1] turned out to be 2353. Moreover, the “Signal (peptides that bind to 23K21 and 8I10)” value with HuM2e antibody 23K12 came out at 782.
As to “714 (SLLTEVETPIRNEWCCRCNDSSD; epitope peptide) [compound 714]”, in experiment [1], the “Signal (peptides that show specific binding to Z3G1)” value is on record as 2388. Moreover, in the experiment on HuM2e antibody 23K12, the “Signal (peptides that bind to 23K21 and 8I10)” value amounted to 704.
Taken in the same sequence, the figures for “572 (SLLTEVETPIRNEKGCRCNDSSD; epitope peptide) [compound 572]” were 2580 and 868.
Taken in the same sequence, the figures for “328 (SLETEVETPIRNEWGCRCNDSSD; epitope peptide) [compound 328]” were 1963 and 1720.
The matching figures for “387 (SLLTEVETPIRTEWGCRCNDSSD; epitope peptide) [compound 387]”: 2360 and 1365.
For “566 (SLLTEVCTPIRNEWGCRCNDSSD; epitope peptide) [compound 566]”, the “Signal (peptides that show specific binding to Z3G1)” value in experiment [1] is listed as 1210. The “Signal (peptides that bind to 23K21 and 8I10)” value with HuM2e antibody 23K12 worked out at 881.
The matching figures for “299 (SLLTEVGCLCTCV; epitope peptide) [compound 299]”: 2346 and 1963.
Taken in the same sequence, the figures for “648 (SLLTEVETPIRNEWGKRCNDSSD; epitope peptide) [compound 648]” were 2295 and 762.
The matching figures for “614 (SLLTEVETVIRNEWGCRCNDSSD; epitope peptide) [compound 614]”: 2264 and 810.
As to “701 (SLLTEVETPIRNEWGCKCNDSSD; epitope peptide) [compound 701]”, in experiment [1], the “Signal (peptides that show specific binding to Z3G1)” value was determined as 2290. For the same substance, in the experiment with HuM2e antibody 23K12, the “Signal (peptides that bind to 23K21 and 8I10)” value was 715.
The matching figures for “390 (CLLTEVGSLLTEV; epitope peptide) [compound 390]”: 2494 and 1349.
Take “288 (CSCLCEVGMSLLTEV; epitope peptide) [compound 288]”: in experiment [1], the “Signal (peptides that bind to Z3G1)” value is 1812. In the experiment on HuM2e antibody 23K12, the “Signal (peptides that bind to 23K21 and 8I10)” value worked out at 2154.
Consider “364 (CSLLTEVGCSLLTEV; epitope peptide) [compound 364]”, for which, in experiment [1], the “Signal (peptides that bind to Z3G1)” value is given as 2503. In the experiment with HuM2e antibody 23K12, the “Signal (peptides that bind to 23K21 and 8I10)” value amounted to 1499.
The matching figures for “568 (SLLTEVETPIRNEWGCRCQDSSD; epitope peptide) [compound 568]”: 2438 and 877.
In the case of “627 (SLLTEVETPIRIEWGCRCNDSSD; epitope peptide) [compound 627]”, the “Signal (peptides that show specific binding to Z3G1)” value in experiment [1] came to 2444. Besides, the “Signal (peptides that bind to 23K21 and 8I10)” value with HuM2e antibody 23K12 is recorded as 789.
“342 (SLLTEVETPIRNEWGCRCNSSSD; epitope peptide) [compound 342]”: the “Signal (peptides that bind to Z3G1)” value in experiment [1] came to 2440. In addition, in the experiment on HuM2e antibody 23K12, the “Signal (peptides that bind to 23K21 and 8I10)” value was 1637.
“716 (SLLTEVETPIRNEFGCRCNDSSD; epitope peptide) [compound 716]”: the “Signal (peptides that show specific binding to Z3G1)” value in experiment [1] is given as 2444. The “Signal (peptides that bind to 23K21 and 8I10)” value in the experiment with HuM2e antibody 23K12 came out at 702.
Turning to “317 (MSLLTEVGMSLCTEV; epitope peptide) [compound 317]”, the “Signal (peptides that bind to Z3G1)” value in experiment [1] is 2895. Further, the “Signal (peptides that bind to 23K21 and 8I10)” value in the experiment with HuM2e antibody 23K12 is reported as 1804.
For the substance “571 (SLLTEVETPIRNLWGCRCNDSSD; epitope peptide) [compound 571]”, the “Signal (peptides that show specific binding to Z3G1)” value in experiment [1] came out at 2415. Also, the “Signal (peptides that bind to 23K21 and 8I10)” value in the experiment on HuM2e antibody 23K12 came to 870.
Regarding “452 (SLLTEVGSLLTEC; epitope peptide) [compound 452]”, the “Signal (peptides that show specific binding to Z3G1)” value in experiment [1] amounted to 1862. In addition, the “Signal (peptides that bind to 23K21 and 8I10)” value in the experiment on HuM2e antibody 23K12 worked out at 1326.
The matching figures for “629 (SLLTEVMTPIRNEWGCRCNDSSD; epitope peptide) [compound 629]”: 2331 and 783.
Take “365 (CSLLTEVCMSLLTEC; epitope peptide) [compound 365]”: the “Signal (peptides that bind to Z3G1)” value in experiment [1] was 1891. Moreover, in the experiment on HuM2e antibody 23K12, the “Signal (peptides that bind to 23K21 and 8I10)” value is 1498.
Taken in the same sequence, the figures for “528 (MSLLTCVGCSLLTEV; epitope peptide) [compound 528]” were 2467 and 978.
The matching figures for “395 (SLLTEVETPIRNEWGCRCNNSSD; epitope peptide) [compound 395]”: 2502 and 926.
Consider “284 (ASLLTEVGSLLTCV; epitope peptide) [compound 284]”, for which the “Signal (peptides that show specific binding to Z3G1)” value in experiment [1] was found to be 2358. Further, the “Signal (peptides that bind to 23K21 and 8I10)” value with HuM2e antibody 23K12 amounted to 2443.
For the substance “536 (MCLCTCVGCSLLTEV; epitope peptide) [compound 536]”, the “Signal (peptides that bind to Z3G1)” value in experiment [1] was 2241. Further, the “Signal (peptides that bind to 23K21 and 8I10)” value in the experiment with HuM2e antibody 23K12 worked out at 954.
Regarding “520 (VLLTEVETPIRNEWGCRCNDSSD; epitope peptide) [compound 520]”, in experiment [1], the “Signal (peptides that show specific binding to Z3G1)” value was 1758. In the experiment on HuM2e antibody 23K12, the “Signal (peptides that bind to 23K21 and 8I10)” value was 1014.
The matching figures for “605 (SLLTEVETPIRNMWGCRCNDSSD; epitope peptide) [compound 605]”: 2455 and 820.
The matching figures for “314 (SLLTEVGSLLCEV; epitope peptide) [compound 314]”: 2392 and 1834.
